This passage reports activity results from patent US20260193180A1, “AUTOPHAGY INDUCING COMPOUNDS AND USES THEREOF” (SAMSARA THERAPEUTICS INC., priority 2022, published 2026).

This experiment deals with U2OS cell line stabling expressing RFP-eGFP-hLC3b. The experiment can be described thus: Tandem reporter assay (autophagic flux), RFP-only puncta (autolysosomes). In kind it is cell-based. As to conditions: Homo sapiens, read-out: Activity (Autolysosome % DMSO activity). As for the experimental part:
Selected compounds of this invention were also assessed for their ability to stimulate autophagy using a U2OS cell line stabling expressing RFP-eGFP-hLC3b (a tandem reporter cell line). This assay is further described in WO 2023/089074.
LC3b is a protein found in the membrane of autophagosomes which has been used to generate genetic reporters of autophagy in cells. In these systems a tandem fusion of LC3b is engineered with two fluorescent proteins of different wavelengths: one which is acid sensitive (for example eGFP, which fluoresces green) and the other which is acid insensitive (for example RFP, which fluoresces red). Cells expressing RFP-eGFP-hLC3b can be examined using fluorescent microscopy: the autophagosomes present will fluoresce in both channels (either yellow in an overlay of both channels or puncta that are present in both the individual red and green channels) but the autolysosomes present will fluoresce in the RFP (red) channel only. Using a fluorescent microscope, the number of autophagosomes and autolysosomes can be counted, allowing for the monitoring of both the induction of autophagy (total puncta count) and the rate of autophagic flux (ratio of red-only to red-and-green puncta). The influence of small molecules on autophagy induction and flux can be assessed using this system by comparison to a non-treated control.
Representative Procedure: Human osteosarcoma U20S cells stably expressing RFP-eGFP-hLC3b were seeded (10,000 cells/well) into a 96-well glass-bottom plate (Cell Carrier Ultra, Perkin Elmer) in DMEM Glutamax media (Gibco) supplemented with 10% Fetal Bovine Serum (FBS) and antibiotics (100 μg/ml penicillin, 100 μg/ml streptomycin, Invitrogen), then incubated overnight in a humified atmosphere at 37° C. and 5% CO2. The cells were then treated with the compounds of interest, dissolved in DMSO, in a duplicated 5- or 10-point dose-response. 8 wells were treated with an equivalent volume of DMSO, 4 with 0.3 μM torin-1 as a positive control (MCE) and 4 wells with 0.4 μM torin-1 plus 0.2 μM bafilomycin (MCE) as a control for flux inhibition. The cells were returned to the incubator and the treatment continued for 24 hours. After treatment, the media was aspirated off and the cells fixed with a solution of 4% formaldehyde+1% glutaraldehyde (Sigma) in dPBS (plus magnesium and calcium, Gibco). Fixation was allowed to proceed for 15 minutes at room temperature then the fixative solution discarded and replaced with PBS (Gibco) plus Hoescht 33342 (1 μg/ml, Sigma). After 30 minutes the plates were imaged on an Opera Phenix confocal microscope (Perkin-Elmer) using a 40× water objective, collecting using DAPI, mCherry and GFP channels. Cells were detected based upon the staining of their nuclei with DAPI using the Harmony image analysis software (Perkin-Elmer) and the number of autophagosomes (GFP and RFP puncta) and autolysosomes (RFP only puncta) per cell were counted using the spot picking function within the software.
Background: In a reporter assay the amount or activity of a reporter protein is the signal.

Counter-ions that a name gives are not always drawn. Like-named read-outs stand apart in the source and are kept apart here.

As for `CCOc1c(Cl)cc(CN2CC[C@@H](CN)C2)cc1Cl` [Compound 70, (S)-(1-(3,5-dichloro-4-ethoxybenzyl)pyrrolidin-3-yl)methanamine hydrochloride], the activity at 0.75 µM (0.75 μM, one run) was in the range of 150 to 200%.

Consider `CCOc1ccc(CCN2CCC(N)CC2)cc1Cl` [Compound 71, 1-(3-chloro-4-ethoxyphenethyl)piperidin-4-amine hydrochloride], for which, under “0.833 μM, average of two runs”, the activity at 0.833 µM lay in the range of 150 to 200%.

Turning to `COCCOc1c(Cl)cc(CCN2CCC[C@H](N)C2)cc1Cl` [Compound 72, (S)-1-(3,5-dichloro-4-(2-methoxyethoxy)phenethyl)piperidin-3-amine hydrochloride], the activity at 0.5 µM (average of two runs) was in the range of 150 to 200%.

`N[C@@H]1CCN(Cc2cc(Cl)c(OCC3CC3)c(Cl)c2)C1` [Compound 73, (R)-1-(3,5-dichloro-4-(cyclopropylmethoxy)benzyl)pyrrolidin-3-amine hydrochloride]: for the setting “average of two runs”, the activity at 1.25 µM lay in the range of 250 to 300%.

On to `N[C@H]1CCCN(CCc2cc(Cl)c(OCC3CC3)c(Cl)c2)C1` [Compound 74, (S)-1-(3,5-dichloro-4-(cyclopropylmethoxy)phenethyl)piperidin-3-amine hydrochloride], for which the activity at 1.25 µM (average of two runs) was greater than 300%.

Turning to `CCOc1ccc(CN2CCC(N)CC2)cc1Cl` [Compound 75, 1-(3-chloro-4-ethoxybenzyl)piperidin-4-amine hydrochloride], the activity at 1.25 µM (average of two runs) lay within 200 to 250%.

As for `COCCOc1c(Cl)cc(CCN2CCC[C@@H](N)C2)cc1Cl` [Compound 76, (R)-1-(3,5-dichloro-4-(2-methoxyethoxy)phenethyl)piperidin-3-amine hydrochloride], the activity at 0.5 µM (average of two runs) was 150 to 200%.

On to `N[C@H]1CCN(Cc2cc(Cl)c(OCC3CC3)c(Cl)c2)C1` [Compound 77, (S)-1-(3,5-dichloro-4-(cyclopropylmethoxy)benzyl)pyrrolidin-3-amine hydrochloride], for which the activity at 1.25 µM (average of two runs) was 250 to 300%.

Consider `N[C@@H]1CCCN(CCc2cc(Cl)c(OCC3CC3)c(Cl)c2)C1` [Compound 78, (R)-1-(3,5-dichloro-4-(cyclopropylmethoxy)phenethyl)piperidin-3-amine hydrochloride], for which the activity at 1.25 µM (average of two runs) is 200 to 250%.

For `N[C@H]1CCCN(CCc2ccc(OCC3CC3)c(Cl)c2)C1` [Compound 79, (S)-1-(3-chloro-4-(cyclopropylmethoxy)phenethyl)piperidin-3-amine formate salt], under “average of two runs”, the activity at 1.25 µM is 250 to 300%.

Regarding `N[C@@H]1CCCN(CCc2ccc(OCC3CC3)c(Cl)c2)C1` [Compound 80, (R)-1-(3-chloro-4-(cyclopropylmethoxy)phenethyl)piperidin-3-amine formate salt], under “average of two runs”, the activity at 1.25 µM fell in the range of 250 to 300%.

On to `NC1CCN(Cc2ccc(OCC3CC3)c(Cl)c2)CC1` [Compound 81, 1-(3-chloro-4-(cyclopropylmethoxy)benzyl)piperidin-4-amine hydrochloride], for which the activity at 1.25 µM (average of two runs) was in the range of 150 to 200%.

Regarding `CCOc1c(Cl)cc(CN2CC[C@H](CN)C2)cc1C#N` [Compound 82, (R)-5-((3-(aminomethyl)pyrrolidin-1-yl)methyl)-3-chloro-2-ethoxybenzonitrile hydrochloride], the activity at 1.25 µM (one run) lay within 150 to 200%.

For the molecule `CCOc1ccc(C#N)cc1CCN1CCC[C@H](N)C1` [Compound 83, (S)-3-(2-(3-aminopiperidin-1-yl)ethyl)-4-ethoxybenzonitrile hydrochloride], the activity at 1.25 µM (average of two runs) is 200 to 250%.

Turning to `CCOc1ccc(C#N)cc1CCN1CCC[C@@H](N)C1` [Compound 84, (R)-3-(2-(3-aminopiperidin-1-yl)ethyl)-4-ethoxy benzonitrile hydrochloride], the activity at 1.25 µM (average of two runs) fell in the range of 200 to 250%.

Take `CCOc1ccc(CCN2CC[C@H](N)C2)cc1C#N` [Compound 85, (S)-5-(2-(3-aminopyrrolidin-1-yl)ethyl)-2-ethoxybenzonitrile hydrochloride]: under “one run”, the activity at 1.25 µM lay within 150 to 200%.

Take `CCOc1ccc(C#N)cc1CCN1CC[C@H](N)C1` [Compound 86, (S)-3-(2-(3-aminopyrrolidin-1-yl)ethyl)-4-ethoxy benzonitrile hydrochloride]: the activity at 1.25 µM (average of two runs) fell in the range of 150 to 200%.

Consider `CCOc1ccc(C#N)cc1CCN1CC[C@@H](N)C1` [Compound 87, 3-{2-[(R)-3-amino-1-pyrrolidinyl]ethyl}-4-ethoxybenzonitrile hydrochloride], for which, where the note is “average of two runs”, the activity at 1.25 µM fell in the range of 150 to 200%.

Consider `CCOc1ccc(CCN2CC[C@@H](N)C2)cc1F` [Compound 88, (R)-1-[2-(4-ethoxy-3-fluorophenyl)ethyl]-3-pyrrolidinylamine hydrochloride], for which the activity at 1.25 µM (average of two runs) fell in the range of 150 to 200%.

For the molecule `COCCOc1ccc(CCN2CCC[C@@H](N)C2)cc1Cl` [Compound 89, (R)-1-{2-[3-chloro-4-(2-methoxyethoxy)phenyl]ethyl}-3-piperidylamine hydrochloride], where the note is “average of two runs”, the activity at 1.25 µM fell in the range of 150 to 200%.

In the case of `CCOc1c(Cl)cc(CN2CCC(N)CC2)cc1Cl` [Compound 90, 1-[(3,5-Dichloro-4-ethoxyphenyl)methyl]-4-piperidylamine hydrochloride], the activity at 1.25 µM (average of two runs) fell in the range of 200 to 250%.

As for `NC1CCN(CCc2cc(Cl)c(OCC3CC3)c(Cl)c2)CC1` [Compound 91, 1-{2-[3,5-Dichloro-4-(cyclopropylmethoxy)phenyl]ethyl}-4-piperidylamine hydrochloride], the activity at 1.25 µM (one run) is 150 to 200%.

Consider `CCOc1ccc(CN2CCC[C@H](N)C2)cc1Cl` [Compound 92, (S)-1-[(3-chloro-4-ethoxyphenyl)methyl]-3-piperidylamine hydrochloride], for which the activity at 0.5 µM (average of two runs) lay in the range of 150 to 200%.

As for `CCOc1ccc(CN2CCC[C@@H](N)C2)cc1Cl` [Compound 93, (R)-1-[(3-chloro-4-ethoxyphenyl)methyl]-3-piperidylamine hydrochloride], the activity at 1.25 µM (average of two runs) lay in the range of 150 to 200%.

Turning to `COCCOc1c(Cl)cc(CN2CCC(N)CC2)cc1Cl` [Compound 94, 1-{[3,5-dichloro-4-(2-methoxyethoxy)phenyl]methyl}-4-piperidylamine hydrochloride], the activity at 1.25 µM (average of two runs) is 150 to 200%.

For the molecule `COCCOc1ccc(CN2CCC(N)CC2)cc1Cl` [Compound 95, 1-{[3-chloro-4-(2-methoxyethoxy)phenyl]methyl}-4-piperidylamine hydrochloride], under “average of two runs”, the activity at 1.25 µM was 200 to 250%.

For the molecule `N[C@H]1CCCN(Cc2cc(Cl)c(OCC3CC3)c(Cl)c2)C1` [Compound 96, (S)-1-{[3,5-dichloro-4-(cyclopropylmethoxy)phenyl]methyl}-3-piperidylamine hydrochloride], for the setting “average of two runs”, the activity at 1.25 µM was in the range of 200 to 250%.

Regarding `N[C@@H]1CCCN(Cc2cc(Cl)c(OCC3CC3)c(Cl)c2)C1` [Compound 97, (R)-1-{[3,5-dichloro-4-(cyclopropylmethoxy)phenyl]methyl}-3-piperidylamine hydrochloride], the activity at 1.25 µM (average of two runs) was in the range of 150 to 200%.

On to `NC1CCN(Cc2cc(Cl)c(OCC3CC3)c(Cl)c2)CC1` [Compound 98, 1-{[3,5-dichloro-4-(cyclopropylmethoxy)phenyl]methyl}-4-piperidylamine hydrochloride], for which the activity at 1.25 µM (average of two runs) fell in the range of 150 to 200%.

Consider `N[C@@H]1CCN(CCc2ccc(OCC3CC3)c(Cl)c2)C1` [Compound 99, (R)-1-{2-[3-chloro-4-(cyclopropylmethoxy)phenyl]ethyl}-3-pyrrolidinylamine hydrochloride], for which the activity at 1.25 µM (average of two runs) lay in the range of 150 to 200%.
